Our source for the IC50 values is patent US11198695B2, “Fused ring derivative having MGAT-2 inhibitory activity” (Shionogi & Co., Ltd., priority 2017, dated 2021).

The experiment concerns the target recombinant human MGAT2 (Homo sapiens (Human), UniProt Q3SYC2). Put plainly: Measurement of human MGAT2 inhibitory activity. It counts as biochemical. In outline:
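Membrane fraction of Sf9 cells expressing N-terminally Flag-tagged full-length human MGAT2, incubated 1 h at room temperature in 100 mmol/L phosphate pH 7.4 with 2 mmol/L DTT. The substrate solution held 30 μmol/L 2-oleoylglycerol and 10 μmol/L oleoyl-CoA. Diolein product was quantified by RapidFire ESI Q-TOF MS against diolein-d5 internal standard; % inhibition was set relative to with/without-enzyme controls.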

The mark [1] stands for this setting: read-out: IC50 (concentration exhibiting 50% enzyme inhibition), Table 53.
Setting [2] is: read-out: IC50 (concentration exhibiting 50% enzyme inhibition), Table 52.

pIC50: −log10 of the molar value. Where two headings read alike, the source gives them in different places.

recombinant human MGAT2, sequence (Q3SYC2 whole entry): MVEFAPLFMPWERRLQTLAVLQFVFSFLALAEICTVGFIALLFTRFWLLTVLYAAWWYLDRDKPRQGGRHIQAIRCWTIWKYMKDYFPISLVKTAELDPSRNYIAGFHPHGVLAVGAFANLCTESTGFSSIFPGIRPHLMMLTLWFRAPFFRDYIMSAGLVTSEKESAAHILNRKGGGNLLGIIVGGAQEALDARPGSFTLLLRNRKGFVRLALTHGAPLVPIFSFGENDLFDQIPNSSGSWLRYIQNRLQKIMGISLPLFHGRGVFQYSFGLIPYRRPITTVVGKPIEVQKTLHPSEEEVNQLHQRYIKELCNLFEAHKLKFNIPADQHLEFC

With `N#Cc1ccc(-n2nc3c(c2C(=O)NCCC(F)(F)F)C(=O)N[C@@]2(CCc4cc(OCC(F)(F)F)ccc42)C3)nc1` [II-126], under setting [1], the pIC50 is 7.90.

In the case of `Cc1oncc1C(=O)Nc1c2c(nn1CCC1CC1)C[C@]1(CCc3cc(OCC(F)(F)F)ccc31)NC2=O` [Compound I-224], under setting [2], the pIC50 was 6.51.

Consider `O=C1N[C@@]2(CCc3cc(OCC(F)(F)F)ccc32)Cc2nn(CCC3CC3)c(CNS(=O)(=O)C3CCCC3)c21` [Compound I-140], for which, under setting [2], the pIC50 was 6.14.

As for `CC(C)(O)c1cccc(-n2nc3c(c2NC(=O)CS(C)(=O)=O)C(=O)N[C@@]2(CCc4cc(OCC(F)(F)F)ccc42)C3)c1` [Compound I-240], under setting [2], the pIC50 was 6.00.

For `COCCNC(=O)c1c2c(nn1-c1ccc(C#N)cn1)C[C@]1(CCc3cc(OCC(F)(F)F)ccc31)NC2=O` [II-125], under setting [1], the pIC50 was 7.20.

For the compound `Cc1cc(-n2nc3c(c2NC(=O)CS(C)(=O)=O)C(=O)N[C@@]2(CCc4cc(Cl)ccc42)C3)nn1C` [II-306], the pIC50 under setting [1] was 7.95.

On to `CS(=O)(=O)CC(=O)Nc1c2c(nn1-c1ccc(C3CC3)nn1)C[C@]1(CCc3cc(OCC(F)(F)F)ccc31)NC2=O` [II-105], for which the pIC50 under setting [1] is 8.57.

For `CS(=O)(=O)CC(=O)Nc1c2c(nn1CCC1CC1)C[C@]1(CCc3cc(OCC(F)F)ccc31)NC2=O` [Compound I-7], the pIC50 under setting [2] was 7.82.

`CS(=O)(=O)CC(=O)Nc1c2c(nn1-c1ccc(C#N)cc1)C[C@]1(CCc3cc(OCCCC(F)(F)F)ccc31)NC2=O` [Compound I-44]: the pIC50 under setting [2] is 8.41.

Regarding `O=C(Nc1c2c(nn1CCC1CC1)C[C@]1(CCc3cc(OCC(F)(F)F)ccc31)NC2=O)c1ccccn1` [Compound I-79], the pIC50 under setting [2] was 6.07.

On to `CS(=O)(=O)CC(=O)Nc1c2c(nn1CCC1CC1)C[C@]1(CCc3cc(N4CC(F)(F)C4)ccc31)NC2=O` [Compound I-204], for which the pIC50 under setting [2] is 7.95.

Take `O=C1N[C@@]2(CCc3cc(OCC(F)(F)F)ccc32)Cc2nn(CCC3CC3)c(C(=O)NS(=O)(=O)C(F)(F)F)c21` [Compound I-108]: the pIC50 under setting [2] is 8.54.

For `N#Cc1ccc(-n2nc3c(c2C(=O)NCC2(C(F)(F)F)CC2)C(=O)N[C@@]2(CCc4cc(OCC(F)(F)F)ccc42)C3)nc1` [II-191], the pIC50 under setting [1] was 7.04.

Take `O=C(Nc1c2c(nn1CCC1CC1)C[C@]1(CCc3cc(OCCCC(F)(F)F)ccc31)NC2=O)c1ccc(F)cc1` [Compound I-16]: the pIC50 under setting [2] is 6.82.

In the case of `COCCCn1nc2c(c1NC(=O)CS(C)(=O)=O)C(=O)N[C@@]1(CCOc3cc(OCC(F)(F)F)ccc31)C2` [II-26], the pIC50 under setting [1] is 8.02.

On to `CCCc1cccc(-n2nc3c(c2NC(=O)CS(C)(=O)=O)C(=O)N[C@@]2(CCc4cc(OCC(F)(F)F)ccc42)C3)c1` [Compound I-239], for which the pIC50 under setting [2] was 6.42.

Regarding `Cc1ccc(-n2nc3c(c2NC(=O)CS(C)(=O)=O)C(=O)N[C@@]2(CCc4cc(C(F)(F)F)ccc42)C3)nn1` [II-234], the pIC50 under setting [1] is 8.26.

Take `CS(=O)(=O)CC(=O)Nc1c2c(nn1-c1ccc(C(F)F)nn1)C[C@]1(CCc3cc(OCCCC(F)(F)F)ccc31)NC2=O` [II-258]: the pIC50 under setting [1] is 9.55.

Consider `Cc1ccc(-n2nc3c(c2C(=O)NCC#N)C(=O)N[C@@]2(CCc4cc(OCC(F)(F)F)ccc42)C3)nc1` [II-197], for which, under setting [1], the pIC50 is 8.17.

With `Cc1ccc(-n2nc3c(c2NC(=O)CS(C)(=O)=O)C(=O)N[C@@]2(CCc4cc(OCC(F)F)ccc42)C3)nc1` [II-158], the pIC50 under setting [1] is 8.09.

With `CS(=O)(=O)CC(=O)Nc1c2c(nn1-c1ccc(F)cc1)C[C@]1(CCc3cc(OCC(F)(F)F)ccc31)NC2=O` [Compound I-99], the pIC50 under setting [2] was 8.21.

In the case of `Cc1cc(-n2nc3c(c2NC(=O)CS(C)(=O)=O)C(=O)N[C@@]2(CCOc4cc(OCC(F)(F)F)ccc42)C3)no1` [II-150], under setting [1], the pIC50 was 8.88.

In the case of `Cc1cc(-n2nc3c(c2NC(=O)CS(C)(=O)=O)C(=O)N[C@@]2(CCOc4cc(Cl)ccc42)C3)no1` [II-266], under setting [1], the pIC50 is 8.74.

In the case of `Cc1cnc(-n2nc3c(c2NC(=O)CS(C)(=O)=O)C(=O)N[C@@]2(CCc4cc(OCC(F)(F)F)ccc42)C3)cn1` [Compound I-264], the pIC50 under setting [2] was 7.07.

Take `CS(=O)(=O)CC(=O)Nc1c2c(nn1-c1ccc(F)cn1)C[C@@]1(CCc3cc(OCC(F)(F)F)ccc31)NC2=O` [Compound I-211]: the pIC50 under setting [2] was 8.68.

For `Cc1cccc(-n2nc3c(c2NC(=O)CS(C)(=O)=O)C(=O)N[C@]2(CCc4cc(OCC(F)(F)F)ccc42)C3)c1` [Compound I-267], under setting [2], the pIC50 is 8.01.

`COCCCn1nc2c(c1NC(=O)CS(C)(=O)=O)C(=O)N[C@@]1(CCc3cc(OCC(F)(F)F)ccc31)C2` [Compound I-252]: the pIC50 under setting [2] was 7.89.

As for `Cc1ccc(-n2nc3c(c2NC(=O)CS(C)(=O)=O)C(=O)N[C@@]2(CCOc4cc(OC(C)C)ccc42)C3)nc1` [II-153], the pIC50 under setting [1] was 8.31.

With `Cc1ccc(-n2nc3c(c2C(=O)NS(=O)(=O)Cc2ccccc2)C(=O)N[C@@]2(CCc4cc(OCC(F)(F)F)ccc42)C3)nc1` [II-213], the pIC50 under setting [1] is 7.23.

Regarding `O=C1N[C@@]2(CCc3cc(OCC(F)(F)F)ccc32)Cc2nn(CCC3CC3)c(NC(=O)C3CC(F)(F)C3)c21` [Compound I-184], the pIC50 under setting [2] was 7.17.

Take `CS(=O)(=O)CC(=O)Nc1c2c(nn1-c1cccnn1)C[C@]1(CCc3cc(OCC(F)(F)F)ccc31)NC2=O` [Compound I-265]: the pIC50 under setting [2] was 7.44.

In the case of `O=C(Nc1c2c(nn1CCC1CC1)C[C@]1(CCc3cc(OCC(F)(F)F)ccc31)NC2=O)c1cscn1` [Compound I-222], under setting [2], the pIC50 is 7.06.

As for `CS(=O)(=O)CC(=O)Nc1c2c(nn1CCCOC(F)F)C[C@@]1(CCc3cc(OCC(F)(F)F)ccc31)NC2=O` [II-194], the pIC50 under setting [1] is 8.81.

With `Cc1ccc(-n2nc3c(c2NC(=O)CC(N)=O)C(=O)N[C@@]2(CCOc4cc(OCC(F)(F)F)ccc42)C3)nc1` [II-269], the pIC50 under setting [1] was 7.93.

Regarding `Cc1ccc(-n2nc3c(c2C(=O)NCC#N)C(=O)N[C@@](c2ccc(OCC(F)(F)F)cc2F)(C(F)(F)F)C3)nc1` [II-239], under setting [1], the pIC50 was 8.34.

Consider `CCS(=O)(=O)CC(=O)Nc1c2c(nn1CCCOC(F)(F)F)C[C@@]1(CCOc3cc(OCC(F)(F)F)ccc31)NC2=O` [II-289], for which the pIC50 under setting [1] is 8.97.

Consider `CS(=O)(=O)CC(=O)Nc1c2c(nn1CCC1CC1)C[C@@]1(CCc3cc(OCCOCC(F)(F)F)ccc31)NC2=O` [II-100], for which the pIC50 under setting [1] was 8.32.

On to `CS(=O)(=O)CC(=O)Nc1c2c(nn1-c1cccc(C(F)(F)F)c1)C[C@]1(CCc3cc(OCC(F)(F)F)ccc31)NC2=O` [Compound I-125], for which the pIC50 under setting [2] is 6.28.

As to `CS(=O)(=O)CC(=O)Nc1c2c(nn1CCCOC(F)(F)F)C[C@@]1(CCOc3cc(CCC(F)(F)F)ccc31)NC2=O` [II-280], the pIC50 under setting [1] is greater than 9.00.

For `Cc1ccc(-n2nc3c(c2NC(=O)CS(C)(=O)=O)C(=O)N[C@]2(CCc4cc(OCC(F)(F)F)ccc42)C3)cc1` [Compound I-266], the pIC50 under setting [2] was 8.34.

`O=C1N[C@@]2(CCc3cc(OCC(F)(F)F)ccc32)Cc2nn(CCC3CC3)c(CNS(=O)(=O)CCO)c21` [Compound I-144]: the pIC50 under setting [2] is 6.40.

`O=C1N[C@@]2(CCc3cc(OCC(F)(F)F)ccc32)Cc2nn(CCC3CC3)c(NC(=O)c3onc4ccccc34)c21` [Compound I-177]: the pIC50 under setting [2] is 6.21.

For `CS(C)(=O)=NCCNC(=O)c1c2c(nn1-c1ccc(C#N)cn1)C[C@]1(CCc3cc(OCC(F)(F)F)ccc31)NC2=O` [II-182], the pIC50 under setting [1] is 6.32.

`CS(=O)(=O)CC(=O)Nc1c2c(nn1CCC1CC1)C[C@@]1(CCc3cc(NC4CC(F)(F)C4)ccc31)NC2=O` [II-32]: the pIC50 under setting [1] was 7.77.

As to `CS(=O)(=O)CC(=O)Nc1c2c(nn1-c1ccc(C(F)F)cc1)C[C@]1(CCc3cc(N4CC(F)(F)C4)ccc31)NC2=O` [II-287], under setting [1], the pIC50 is 8.28.

As for `CC(C)(CNC(=O)c1c2c(nn1-c1ccc(C#N)cn1)C[C@]1(CCc3cc(OCC(F)(F)F)ccc31)NC2=O)C(N)=O` [II-115], the pIC50 under setting [1] is 6.69.

`O=C1N[C@@]2(CCc3cc(OCC(F)(F)F)ccc32)Cc2nn(CCC3CC3)c(C(=O)NC3CS(=O)(=O)C3)c21` [Compound I-68]: the pIC50 under setting [2] was 6.12.

Regarding `N#Cc1ccc(-n2nc3c(c2C(=O)NCCSC(F)(F)F)C(=O)N[C@@]2(CCc4cc(OCC(F)(F)F)ccc42)C3)nc1` [II-185], under setting [1], the pIC50 was 7.55.

For `CS(=O)(=O)CC(=O)Nc1c2c(nn1-c1ccccn1)C[C@](c1ccc(OCC(F)(F)F)cc1)(C(F)(F)F)NC2=O` [Compound I-103], the pIC50 under setting [2] was 6.49.

For the compound `Cc1ccc(-n2nc3c(c2NC(=O)CS(C)(=O)=O)C(=O)N[C@@]2(CCOc4cc(OCC(F)(F)F)ccc42)C3)cc1F` [II-248], the pIC50 under setting [1] was 8.74.

Take `CS(=O)(=O)CC(=O)Nc1c2c(nn1CCC1CC1)C[C@]1(CCc3cc(C4CC4)ccc31)NC2=O` [Compound I-3]: the pIC50 under setting [2] is 8.04.

With `CS(=O)(=O)NC(=O)c1c2c(nn1CCC1CC1)C[C@]1(CCc3cc(OCC(F)(F)F)ccc31)NC2=O` [Compound I-279], under setting [2], the pIC50 is 7.30.

With `Cc1ccc(-n2nc3c(c2NC(=O)CS(C)(=N)=O)C(=O)NC2(C3)CN(c3ccc(C(F)(F)F)cc3)C2)nc1` (stereo not shown) [II-308], the pIC50 under setting [1] is 8.18.

Turning to `Cc1cc(C(=O)Nc2c3c(nn2CCC2CC2)C[C@]2(CCc4cc(OCC(F)(F)F)ccc42)NC3=O)no1` [Compound I-176], the pIC50 under setting [2] was 6.74.

As to `CS(=O)(=O)CC(=O)Nc1c2c(nn1-c1ccc(C#N)cn1)CC1(CN(c3c(F)cc(C(F)(F)F)cc3F)C1)NC2=O` [II-74], the pIC50 under setting [1] is 8.64.

For the compound `O=C1N[C@@]2(CCc3cc(OCC(F)(F)F)ccc32)Cc2nn(CCC3CC3)c(CNC(=O)C3CC3)c21` [Compound I-145], under setting [2], the pIC50 was 7.08.

For `CCCCn1nc(NC(=O)CS(C)(=O)=O)c2c1C[C@]1(CCc3cc(OCCCC(F)(F)F)ccc31)NC2=O` [Compound I-63], the pIC50 under setting [2] was 6.40.

Regarding `Cc1ccccc1-n1nc2c(c1NC(=O)CS(C)(=O)=O)C(=O)N[C@@]1(CCc3cc(OCCCC(F)(F)F)ccc31)C2` [Compound I-180], under setting [2], the pIC50 was 6.82.
